We go through 7 compounds from ChEMBL document CHEMBL2021790, “Pyridone methylsulfone hydroxamate LpxC inhibitors for the treatment of serious gram-negative infections” (J Med Chem, 2012).

Values after ≈ are worked out from the molar mass of the structure shown.

One series relates to Escherichia coli. The series can be described thus: microbe, parasite or virus in culture.
Another series concerns Klebsiella aerogenes. The series can be described thus: microbe, parasite or virus in culture.
The subject of another series is Klebsiella pneumoniae. The series can be described thus: microbe, parasite or virus in culture.
The subject of series [1] is Pseudomonas aeruginosa. Nature of the series: microbe, parasite or virus in culture.
Description: Antimicrobial activity against Pseudomonas aeruginosa after 16 to 20 hrs by 2-fold microbroth dilution method
A further series has as its system Citrobacter freundii. The series can be described thus: microbe, parasite or virus in culture.
A further series concerns Acinetobacter sp. The series can be described thus: Antimicrobial activity against Acinetobacter sp. after 16 to 20 hrs by 2-fold microbroth dilution method. It is filed as functional. On the technique in general: Broth dilution looks for growth in wells or tubes with falling amounts of substance.
Series [2] can be described thus: Thermodynamic solubility of the compound in thermosol at pH 7.4. It is filed as physicochemical. Conditions: buffer, read-out: Therm_solubility.
For series [3], the system named is Pseudomonas aeruginosa. The series can be described thus: Antimicrobial activity against Pseudomonas aeruginosa PA3919 with (delta(mexAB-OprM)delta(mexXY)delta(MexZ) phenotype after 16 to 20 hrs by 2-fold microbroth dilution method. It is filed as functional.
Series [4] is described as follows: Fraction unbound in human plasma relative to untreated control. It is filed as ADME, cell-free.
Series [5] can be described thus: AUC in rat at 10 mg/kg. It counts as ADME, organism-based. The arrangement: dose 10 mg/kg. Conditions: plasma.
Series [6] is described as follows: Thermodynamic solubility of the compound in thermosol at pH 9. It is filed as physicochemical. Conditions: buffer, read-out: Therm_solubility.
Series [7] can be described thus: Thermodynamic solubility of the compound in thermosol at pH 3.0. It counts as physicochemical. Conditions: buffer, read-out: Therm_solubility.
The test system of series [8] is Pseudomonas aeruginosa. Nature of the series: Antimicrobial activity against wild type Pseudomonas aeruginosa PA01 after 16 to 20 hrs by 2-fold microbroth dilution method. It is filed as functional.
The nature of series [9]: Half life in rat at 10 mg/kg. Conditions: in vivo. The arrangement: dose 10 mg/kg. It is filed as ADME, organism-based.
Series [10] is described as follows: Fraction unbound in rat plasma relative to untreated control. It is filed as ADME, cell-free.
Series [11] can be described thus: Volume of distribution at steady state in rat at 10 mg/kg. Also on record: dose 10 mg/kg. Conditions: in vivo, read-out: Vdss. It is filed as ADME, organism-based.
For a further series, the system named is Rattus norvegicus. The series can be described thus: Free AUC in rat at 10 mg/kg. Also on record: dose 10 mg/kg. Conditions: in vivo. It counts as ADME, organism-based.
Series [12] in a line: Clearance in rat at 10 mg/kg. It is filed as ADME, organism-based. Also on record: dose 10 mg/kg. Conditions: in vivo.
The target in series [13] is T1, UDP-3-O-acyl-N-acetylglucosamine deacetylase (Pseudomonas aeruginosa (strain ATCC 15692 / PAO1 / 1C / PRS 101 / LMG12228), UniProt P47205).
T1 sequence (P47205 whole entry): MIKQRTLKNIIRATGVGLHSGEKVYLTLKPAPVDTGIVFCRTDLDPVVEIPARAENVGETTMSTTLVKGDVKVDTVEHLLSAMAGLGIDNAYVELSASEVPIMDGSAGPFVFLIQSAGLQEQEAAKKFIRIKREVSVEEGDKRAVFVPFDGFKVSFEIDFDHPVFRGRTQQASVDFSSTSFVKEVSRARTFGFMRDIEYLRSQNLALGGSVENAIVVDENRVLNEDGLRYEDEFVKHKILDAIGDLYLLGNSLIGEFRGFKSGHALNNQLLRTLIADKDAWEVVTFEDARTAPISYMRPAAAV
The series can be described thus: Inhibition of Pseudomonas aeruginosa LpxC expressed in Escherichia coli using UDP-3-O-N-acetylglucosamine substrate measured after 30 mins by mass spectrometry.

Description for Citrobacter freundii: Antimicrobial activity against Citrobacter freundii after 16 to 20 hrs by 2-fold microbroth dilution method
Description for Escherichia coli: Antimicrobial activity against Escherichia coli after 16 to 20 hrs by 2-fold microbroth dilution method
Description for Klebsiella aerogenes: Antimicrobial activity against Enterobacter aerogenes after 16 to 20 hrs by 2-fold microbroth dilution method
Description for Klebsiella pneumoniae: Antimicrobial activity against Klebsiella pneumoniae after 16 to 20 hrs by 2-fold microbroth dilution method

As for `C[C@H]1[C@H](NC(=O)/C(=N\OC(C)(C)C(=O)O)c2csc(N)n2)C(=O)N1S(=O)(=O)O` [AZTREONAM], the MIC90 was greater than 64 µg/mL against Escherichia coli; 32 µg/mL (≈ 73.5 µM) against Klebsiella aerogenes; greater than 64 µg/mL in the series on Klebsiella pneumoniae; 64 µg/mL (≈ 147 µM) against Pseudomonas aeruginosa [1]; greater than 64 µg/mL against Citrobacter freundii; 32 µg/mL (≈ 73.5 µM) against Acinetobacter sp..
As to `C[C@@](CCc1ccc(-c2ccccc2)cc1)(C(=O)NO)S(C)(=O)=O`, the solubility thermodynamic in series [2] is 3.9 µg/mL (≈ 11.2 µM); in series [6] it was 260 µg/mL (≈ 748 µM); in series [7] it was 7.3 µg/mL (≈ 21 µM). Moreover, the MIC (as a rule, the smallest concentration in the dilution series that meets the test's criterion for growth inhibition) was 0.008 µg/mL (≈ 0.023 µM) against Pseudomonas aeruginosa [3] and 0.125 µg/mL (≈ 0.36 µM) against Pseudomonas aeruginosa [8]. In addition, the MIC90 in the series on Escherichia coli worked out at 2 µg/mL (≈ 5.76 µM); in the series on Klebsiella aerogenes it was 4 µg/mL (≈ 11.5 µM); against Klebsiella pneumoniae it was 16 µg/mL (≈ 46.1 µM); with Pseudomonas aeruginosa [1], 4 µg/mL (≈ 11.5 µM); against Citrobacter freundii, 8 µg/mL (≈ 23 µM); with Acinetobacter sp., 32 µg/mL (≈ 92.1 µM). For the same compound, the fraction unbound (commonly the share of the substance not bound to proteins or other matrix) in series [4] worked out at 0.023; in series [10], 0.026. In addition, the AUC (usually the area under the concentration-time curve, a measure of exposure) in series [5] worked out at 2900 ng·h/mL. Besides, in series [9], the half-life (commonly the time in which the quantity being followed falls by half) is 3.2 h. Also, the Vd in [11] came to 3.8 L/kg. This compound displayed a fAUC with Rattus norvegicus of 75 ng·h/mL. The clearance (commonly the volume of plasma or blood freed of the substance per unit of time) in series [12] amounted to 57 mL/min/kg.
`C[C@@](CCn1ccc(-c2ccc(Cl)cc2F)cc1=O)(C(=O)NO)S(C)(=O)=O`: the minimal inhibitory concentration (MIC) worked out at 0.008 µg/mL (≈ 0.0192 µM) in the series with Pseudomonas aeruginosa [3] and 0.125 µg/mL (≈ 0.3 µM) against Pseudomonas aeruginosa [8]. In addition, the MIC90 with Escherichia coli was determined as 0.125 µg/mL (≈ 0.3 µM); against Klebsiella aerogenes it was 0.5 µg/mL (≈ 1.2 µM); with Klebsiella pneumoniae it was 1 µg/mL (≈ 2.4 µM); with Pseudomonas aeruginosa [1], 1 µg/mL (≈ 2.4 µM); with Citrobacter freundii it was 0.5 µg/mL (≈ 1.2 µM); in the series on Acinetobacter sp., 64 µg/mL (≈ 154 µM). Moreover, the half-maximal inhibitory concentration (IC50) – broadly, the concentration at which inhibition is half-maximal – in series [13] amounted to 1 nM.
Consider `C[C@@](CCn1ccc(-c2ccc3ccccc3c2)cc1=O)(C(=O)NO)S(C)(=O)=O`, for which the figures for the MIC in the series on Pseudomonas aeruginosa [3] and with Pseudomonas aeruginosa [8] were 0.008 µg/mL (≈ 0.0193 µM) and 0.125 µg/mL (≈ 0.302 µM), respectively. In addition, the MIC90 was 0.06 µg/mL (≈ 0.145 µM) with Escherichia coli; 0.25 µg/mL (≈ 0.603 µM) in the series on Klebsiella aerogenes; 0.5 µg/mL (≈ 1.21 µM) against Klebsiella pneumoniae; 1 µg/mL (≈ 2.41 µM) against Pseudomonas aeruginosa [1]; 0.125 µg/mL (≈ 0.302 µM) in the series with Citrobacter freundii; greater than 64 µg/mL against Acinetobacter sp.. Also, the IC50 in [13] turned out to be 1.2 nM.
For `C[C@@](CCn1ccc(-c2ccc(Cl)c(F)c2F)cc1=O)(C(=O)NO)S(C)(=O)=O`, the results for the MIC in the series on Pseudomonas aeruginosa [3] and with Pseudomonas aeruginosa [8] were 0.008 µg/mL (≈ 0.0184 µM) and 0.125 µg/mL (≈ 0.287 µM), respectively. Further, the MIC90 with Escherichia coli is 0.06 µg/mL (≈ 0.138 µM); against Klebsiella aerogenes, 0.25 µg/mL (≈ 0.575 µM); against Klebsiella pneumoniae, 0.5 µg/mL (≈ 1.15 µM); in the series with Pseudomonas aeruginosa [1], 0.25 µg/mL (≈ 0.575 µM); with Citrobacter freundii it was 0.25 µg/mL (≈ 0.575 µM); in the series on Acinetobacter sp., greater than 64 µg/mL. The compound also showed an IC50 in series [13] of 0.52 nM.
With `C[C@@](CCn1cc(F)c(-c2ccccc2)cc1=O)(C(=O)NO)S(C)(=O)=O`, the MIC in the series with Pseudomonas aeruginosa [3] was found to be 0.015 µg/mL (≈ 0.0392 µM); against Pseudomonas aeruginosa [8], 0.5 µg/mL (≈ 1.31 µM). Moreover, the MIC90 in the series with Escherichia coli stood at 4 µg/mL (≈ 10.5 µM); against Klebsiella aerogenes, 8 µg/mL (≈ 20.9 µM); against Klebsiella pneumoniae, 8 µg/mL (≈ 20.9 µM); in the series with Pseudomonas aeruginosa [1], 4 µg/mL (≈ 10.5 µM); against Citrobacter freundii, 8 µg/mL (≈ 20.9 µM); in the series on Acinetobacter sp. it was 32 µg/mL (≈ 83.7 µM). The IC50 in series [13] came to 2.3 nM.
For the compound `C[C@@](CCn1ccc(C#Cc2ccccc2)cc1=O)(C(=O)NO)S(C)(=O)=O`, the MIC was found to be 0.015 µg/mL (≈ 0.0386 µM) against Pseudomonas aeruginosa [3] and 0.25 µg/mL (≈ 0.644 µM) with Pseudomonas aeruginosa [8]. The MIC90 in the series on Escherichia coli is 0.06 µg/mL (≈ 0.154 µM); against Klebsiella aerogenes, 0.25 µg/mL (≈ 0.644 µM); against Klebsiella pneumoniae, 0.5 µg/mL (≈ 1.29 µM); in the series with Pseudomonas aeruginosa [1] it was 2 µg/mL (≈ 5.15 µM); against Citrobacter freundii it was 0.125 µg/mL (≈ 0.322 µM); against Acinetobacter sp. it was greater than 64 µg/mL. It took 1.8 nM to reach half-maximal inhibition in series [13] (IC50).
